Oligonucleotides are written 5' to 3', each unit as a sugar letter and its base; * is a phosphorothioate linkage, no mark a phosphodiester; rarer units and linkages stand in square brackets, end groups in braces. Plain capitals give the bases only. e = 2'-O-(2-methoxyethyl) (MOE); [5mC] = 5-methylcytosine; d = 2'-deoxy (DNA)
Experiments:
APOA1 plasma protein = APOA1 plasma protein levels in C57BL/6 mice; assay type: in vivo, mouse; parameters: APOA1 plasma protein levels: unit not given here; settings: for APOA1 plasma protein % change over the baseline: 6 weeks
Protocol: (§1) Four groups of five mice each were injected twice a week with 25 mg/kg (totaling 50 mg/kg/week) of ISIS 447114, ISIS 447118, ISIS 447143, or ISIS 447144 for 6 weeks. A control group of five mice was injected with phosphate buffered saline (PBS) twice a week for 6 weeks. Plasma samples were obtained before the start of treatment, at week 3 and at week 6. At the end of the treatment period, mice were fasted for 4 hours before being euthanized. Plasma and tissue samples were obtained for further analysis.

LDLR mRNA = LDLR mRNA levels in C57BL/6 mice; assay type: in vivo, mouse; settings: 50 mg/kg/week, 6 weeks, compared to PBS control
Protocol: as §1
(§2) The effect of inhibition of TTC39B in mice on cholesterol homeostasis was studied. PCSK9 mRNA levels were measured using the murine primer probe set mPCSK9 (forward sequence ACCGACTTCAACAGCGTGC, designated herein as SEQ ID NO: 106; reverse sequence GGCTGTCACACTTGCTCGC, designated herein as SEQ ID NO: 107, probe sequence AGGATGGGACACGCTTCCACAGACAX, wherein X is a fluorophore, designated herein as SEQ ID NO: 108). LDLR mRNA levels were measured using the murine primer probe set mLDLR (forward sequence GACCGCAGCGAGTACACCA, designated herein as SEQ ID NO: 109; reverse sequence TCACCTCCGTGTCGAGAGC, designated herein as SEQ ID NO: 110, probe sequence […], designated herein as SEQ ID NO: 111). The results are presented as percentage inhibition compared to the PBS control.

[1] = Body and organ weights in C57BL/6 mice; assay type: in vivo, mouse; settings: for Kidney weight after treatment / Liver weight after treatment / Spleen weight after treatment: 50 mg/kg/week, 6 weeks
Protocol: as §1
Body weights of all the mice were measured weekly till the end of the treatment period. Organ weights were taken at the end of the treatment period when the mice were euthanized.

[2] = Plasma glucose in C57BL/6 mice (glucose oxidase assay); assay type: in vivo, mouse
Protocol: as §1
Plasma glucose values were determined using a Beckman Glucose Analyzer II (Beckman Coulter) by a glucose oxidase assay. As presented in Table 14, there was no significant change in glucose levels after treatment with ISIS oligonucleotides.

ABCA1 mRNA = ABCA1 mRNA levels in C57BL/6 mice after TTC39B inhibition; assay type: in vivo, mouse; settings: 50 mg/kg/week, 6 weeks
Protocol: as §1
(§3) The effect of inhibition of TTC39B in mice on these proteins of reverse cholesterol transport was studied. RNA levels of ABCA1 were measured using murine primer probe set RTS1204 (forward sequence […], designated herein as SEQ ID NO: 97; reverse sequence […], designated herein as SEQ ID NO: 98; and probe sequence […], designated herein as SEQ ID NO: 99). RNA levels of apoA1 were measured using murine primer probe set RTS14737 (forward sequence […], designated herein as SEQ ID NO: 100; reverse sequence […], designated herein as SEQ ID NO: 101; and probe sequence […], designated herein as SEQ ID NO: 102). RNA levels of SRB1 were measured using murine primer probe set mSRB-1 (forward sequence […], designated herein as SEQ ID NO: 103; reverse sequence ATGCGACTTGTCAGGCTGG, designated herein as SEQ ID NO: 104; and probe sequence […], designated herein as SEQ ID NO: 105).

apoA1 mRNA = apoA1 mRNA levels in C57BL/6 mice after TTC39B inhibition; assay type: in vivo, mouse; settings: 50 mg/kg/week, 6 weeks
Protocol: as §1, §3

SRB1 mRNA = SRB1 mRNA levels in C57BL/6 mice after TTC39B inhibition; assay type: in vivo, mouse; settings: 50 mg/kg/week, 6 weeks
Protocol: as §1, §3

murine TTC39B mRNA [3] = experiment: In vivo antisense inhibition of murine TTC39B mRNA in liver of C57BL/6 mice; parameters: species or system mouse; settings: 50 mg/kg/week, 6 weeks, relative to PBS control
Protocol: as §1
RNA was extracted from liver tissue for real-time PCR analysis of TTC39B using murine primer probe set mTtc39b_LTS00287. […] Results are presented as an average of the percent inhibition of TTC39B, relative to control.

PCSK9 mRNA = PCSK9 mRNA levels in C57BL/6 mice; assay type: in vivo, mouse; settings: 50 mg/kg/week, 6 weeks, compared to PBS control
Protocol: as §1, §2

murine TTC39B mRNA [4] = experiment: Dose-dependent antisense inhibition of murine TTC39B in mouse primary hepatocytes (Example 3); assay type: cell-based; settings: cytofectin, ~16 h
Protocol: Cells were plated at a density of 10,000 cells per well and transfected using cytofectin reagent with 6.25 nM, 12.5 nM, 25 nM, 50 nM, 100 nM, and 200 nM concentrations of antisense oligonucleotide, as specified in Table 4. After a treatment period of approximately 16 hours, RNA was isolated from the cells and TTC39B mRNA levels were measured by quantitative real-time PCR. Murine primer probe set mTtc39b_LTS00287 was used to measure mRNA levels. TTC39B mRNA levels were adjusted according to total RNA content, as measured by RIBOGREEN®. Results are presented as percent inhibition of TTC39B, relative to untreated control cells.

[5] = Week 0 (before treatment), 50 mg/kg/week

| Sequence | APOA1 plasma protein % change over the baseline (APOA1 plasma protein; 50 mg/kg/week) | APOA1 plasma protein levels (APOA1 plasma protein; [5]) | APOA1 plasma protein levels (APOA1 plasma protein; Week 3, 50 mg/kg/week) | APOA1 plasma protein levels (APOA1 plasma protein; Week 6, 50 mg/kg/week) | Percent inhibition LDLR mRNA levels (LDLR mRNA) [%] | Kidney weight after treatment [1] [g] | Liver weight after treatment [1] [g] | Spleen weight after treatment [1] [g] | body weight ([1]; Week 3, 50 mg/kg/week) [g] | body weight ([1]; Week 6, 50 mg/kg/week) [g] | body weight ([1]; week 1, 50 mg/kg/week) [g] | body weight ([1]; week 2, 50 mg/kg/week) [g] | body weight ([1]; week 4, 50 mg/kg/week) [g] | body weight ([1]; week 5, 50 mg/kg/week) [g] | glucose levels [2, 5] [mg/dL] | glucose levels ([2]; Week 3, 50 mg/kg/week) [mg/dL] | glucose levels ([2]; Week 6, 50 mg/kg/week) [mg/dL] | abcA1 mRNA levels (effect of TTC39B inhibition) (ABCA1 mRNA) | srb1 mRNA levels (effect of TTC39B inhibition) (SRB1 mRNA) | % inhibition of TTC39B mRNA in liver (murine TTC39B mRNA [3]) [%] | further results |
| --- | --- | --- | --- | --- | --- | --- | --- | --- | --- | --- | --- | --- | --- | --- | --- | --- | --- | --- | --- | --- | --- |
| GCCACCAGTGCCTGCTGAGC (antisense eG*e[5mC]*e[5mC]*eA*e[5mC]*d[5mC]*dA*dG*dT*dG*d[5mC]*d[5mC]*dT*dG*d[5mC]*eT*eG*eA*eG*e[5mC]) [ISIS 447143] | +108% | +10 | +15 | +20 | 34 | 0.34 | 1.5 | 0.08 | 27 | 28 | 26 | 26 | 27 | 28 | 238 | 231 | 241 | −17 | 0 | 85 | apoA1 mRNA levels (effect of TTC39B inhibition) (apoA1 mRNA; 50 mg/kg): average increase; apoA1 mRNA levels (effect of TTC39B inhibition) (apoA1 mRNA; listed as 447143, 50 mg/kg): +1; Percent inhibition PCSK9 mRNA levels (PCSK9 mRNA): 65%; percent inhibition of TTC39B mRNA (murine TTC39B mRNA [4]; 6.25 nM): 7%; percent inhibition of TTC39B mRNA (murine TTC39B mRNA [4]; 12.5 nM): 25%; percent inhibition of TTC39B mRNA (murine TTC39B mRNA [4]; 25.0 nM): 44%; percent inhibition of TTC39B mRNA (murine TTC39B mRNA [4]; 50.0 nM): 72%; percent inhibition of TTC39B mRNA (murine TTC39B mRNA [4]; 100.0 nM): 88%; percent inhibition of TTC39B mRNA (murine TTC39B mRNA [4]; 200.0 nM): 94% |
| GCAGCTCGATTCGGGCATGA (antisense eG*e[5mC]*eA*eG*e[5mC]*dT*d[5mC]*dG*dA*dT*dT*d[5mC]*dG*dG*dG*e[5mC]*eA*eT*eG*eA) [ISIS 447118] | +88% | +9 | +13 | +18 | 6 | 0.32 | 1.4 | 0.08 | 26 | 27 | 24 | 25 | 26 | 27 | 242 | 271 | 238 | −2 | 0 | 73 | apoA1 mRNA levels (effect of TTC39B inhibition) (apoA1 mRNA): −23; Percent inhibition PCSK9 mRNA levels (PCSK9 mRNA): 45%; percent inhibition of TTC39B mRNA (murine TTC39B mRNA [4]; 6.25 nM): 0%; percent inhibition of TTC39B mRNA (murine TTC39B mRNA [4]; 12.5 nM): 24%; percent inhibition of TTC39B mRNA (murine TTC39B mRNA [4]; 25.0 nM): 45%; percent inhibition of TTC39B mRNA (murine TTC39B mRNA [4]; 50.0 nM): 66%; percent inhibition of TTC39B mRNA (murine TTC39B mRNA [4]; 100.0 nM): 77%; percent inhibition of TTC39B mRNA (murine TTC39B mRNA [4]; 200.0 nM): 81% |
| CGGATGATTCTTGCTGGTAA (antisense e[5mC]*eG*eG*eA*eT*dG*dA*dT*dT*d[5mC]*dT*dT*dG*d[5mC]*dT*eG*eG*eT*eA*eA) [ISIS 447114] | +122% | +9 | +12 | +22 | 2 | 0.33 | 1.3 | 0.09 | 26 | 27 | 25 | 25 | 26 | 27 | 293 | 229 | 232 | −18 | −12 | 49 | apoA1 mRNA levels (effect of TTC39B inhibition) (apoA1 mRNA): −14; Percent inhibition PCSK9 mRNA levels (PCSK9 mRNA): 24%; percent inhibition of TTC39B mRNA (murine TTC39B mRNA [4]; 6.25 nM): 6%; percent inhibition of TTC39B mRNA (murine TTC39B mRNA [4]; 12.5 nM): 5%; percent inhibition of TTC39B mRNA (murine TTC39B mRNA [4]; 25.0 nM): 34%; percent inhibition of TTC39B mRNA (murine TTC39B mRNA [4]; 50.0 nM): 71%; percent inhibition of TTC39B mRNA (murine TTC39B mRNA [4]; 100.0 nM): 90%; percent inhibition of TTC39B mRNA (murine TTC39B mRNA [4]; 200.0 nM): 93% |
| TATTTCTATAGCTCATGACA (antisense eT*eA*eT*eT*eT*d[5mC]*dT*dA*dT*dA*dG*d[5mC]*dT*d[5mC]*dA*eT*eG*eA*e[5mC]*eA) [ISIS 447144] | +108% | +10 | +14 | +20 | 2 | 0.34 | 1.3 | 0.08 | 26 | 28 | 25 | 26 | 27 | 27 | 222 | 239 | 235 | 0 | 0 | 70 | apoA1 mRNA levels (effect of TTC39B inhibition) (apoA1 mRNA; 50 mg/kg): average increase; apoA1 mRNA levels (effect of TTC39B inhibition) (apoA1 mRNA; listed as 447144, 50 mg/kg): +50; Percent inhibition PCSK9 mRNA levels (PCSK9 mRNA): 19% |
